# pEC50: −log10 of the molar value.
# Molecular target: T1, human RXFP1 (Homo sapiens, UniProt Q9HBX9)
# T1 construct: expressed in transfected cells
# T1 sequence (Q9HBX9 1-757): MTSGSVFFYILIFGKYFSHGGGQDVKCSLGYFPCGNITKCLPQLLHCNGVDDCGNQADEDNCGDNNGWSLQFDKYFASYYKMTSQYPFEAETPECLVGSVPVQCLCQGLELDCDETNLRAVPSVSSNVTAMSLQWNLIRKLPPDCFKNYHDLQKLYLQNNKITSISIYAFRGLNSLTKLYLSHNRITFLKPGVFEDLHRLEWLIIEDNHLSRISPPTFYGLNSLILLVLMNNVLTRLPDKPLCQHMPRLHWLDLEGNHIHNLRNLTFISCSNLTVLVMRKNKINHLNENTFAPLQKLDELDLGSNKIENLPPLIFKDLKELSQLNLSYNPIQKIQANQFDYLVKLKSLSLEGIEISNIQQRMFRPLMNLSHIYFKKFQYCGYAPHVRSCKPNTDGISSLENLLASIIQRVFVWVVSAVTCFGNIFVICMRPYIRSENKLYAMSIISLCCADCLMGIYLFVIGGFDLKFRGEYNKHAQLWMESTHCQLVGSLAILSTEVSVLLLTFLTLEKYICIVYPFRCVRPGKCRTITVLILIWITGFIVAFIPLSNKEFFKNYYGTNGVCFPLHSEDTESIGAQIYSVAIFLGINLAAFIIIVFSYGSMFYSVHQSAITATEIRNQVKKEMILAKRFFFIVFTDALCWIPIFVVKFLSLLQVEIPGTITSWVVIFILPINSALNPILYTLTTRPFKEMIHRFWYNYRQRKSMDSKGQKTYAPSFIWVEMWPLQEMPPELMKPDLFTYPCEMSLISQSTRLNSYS
# Assay: hRXFP1 HEK293 cAMP assay (HTRF)
# Format: cell-based
# Conditions: HEK293 cells stably expressing human RXFP1, 30 min at room temperature
# Outline: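 Intracellular cAMP was read by HTRF, with potency fitted to a 4-parameter logistic curve. Compound exposure (0.010 nM–50 μM final, 2% DMSO) lasted 30 min at room temperature. Cells were hRXFP1-HEK293 at 1500 per well in IBMX-containing (0.5 mM) HEPES-buffered HBSS.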
row,pEC50,Compound
1,6.58,"COc1ccc(/C=C/C(=O)N[C@H]2C[C@H](O)C2)cc1C(=O)NC1C2CCC(/C2=C/C(F)(F)F)[C@@H]1C(=O)Nc1ccc(F)c(C(F)(F)F)c1 (stereo partly drawn) [Example 131, (2S,3R,7Z)-N-[4-fluoro-3-(trifluoromethyl)phe-nyl]-3-{2-methoxy-5-[(1E)-2-{[(1r,3r)-3-hydroxycyclobutyl]car-bamoyl}eth-1-en-1-yl]benzamido}-7-(2,2,2-trifluoroethylidene)bi-cyclo[2.2.1]heptane-2-carboxamide]"
2,6.25,"COc1ccc(/C=C/C(=O)N[C@H]2C[C@@H](O)C2)cc1C(=O)N[C@@H]1C2CCC(/C2=C/C(F)(F)F)[C@@H]1C(=O)Nc1ccc(F)c(C(F)(F)F)c1 (stereo partly drawn) [Example 134, (2S,3R,7Z)-N-[4-fluoro-3-(trifluoromethyl)phe-nyl]-3-{2-methoxy-5-[(1E)-2-{[(1s,3s)-3-hydroxycyclobutyl]car-bamoyl}eth-1-en-1-yl]benzamido}-7-(2,2,2-trifluoroethylidene)bi-cyclo[2.2.1]heptane-2-carboxamide]"
3,6.78,CCOC(=O)C1CCCC(c2ccc(OC)c(C(=O)N[C@@H]3C4CCC(/C4=C/C(F)(F)F)[C@@H]3C(=O)Nc3ccc(F)c(C(F)(F)F)c3)c2)C1 (stereo partly shown) [Example 142]
4,6.87,"COc1ccc(C2CCCC(C(=O)O)C2)cc1C(=O)NC1C2CCC(/C2=C/C(F)(F)F)[C@@H]1C(=O)Nc1ccc(F)c(C(F)(F)F)c1 (stereo partly drawn) [Example 144, 3-(3-{[(2R,3S,7Z)-3-{[4-fluoro-3-(trifluoromethyl)phe-nyl]carbamoyl}-7-(2,2,2-trifluoroethylidene)bi-cyclo[2.2.1]heptan-2-yl]carbamoyl}-4-methoxyphenyl)cyclo-hexane-1-carboxylic acid]"
5,7.08,"COc1ccc([C@H]2C[C@H](O)C2)cc1C(=O)NC1C2CCC(/C2=C/C(F)(F)F)[C@@H]1C(=O)Nc1ccc(F)c(C(F)(F)F)c1 (stereo partly drawn) [Example 145, (2S,3R,7Z)-N-[4-fluoro-3-(trifluoromethyl)phe-nyl]-3-{2-methoxy-5-[(1r,3r)-3-hydroxycyclobutyl]benzamido}-7-(2,2,2-trifluoroethylidene)bi-cyclo[2.2.1]heptane-2-carboxamide]"
6,6.63,"COc1ccc([C@H]2C[C@@H](O)C2)cc1C(=O)NC1C2CCC(/C2=C/C(F)(F)F)[C@@H]1C(=O)Nc1ccc(F)c(C(F)(F)F)c1 (stereo partly drawn) [Example 146, (2S,7Z)-N-[4-fluoro-3-(trifluoromethyl)phe-nyl]-3-{2-methoxy-5-[(1s,3s)-3-hydroxycyclobutyl]benz-amido}-7-(2,2,2-trifluoroethylidene)bi-cyclo[2.2.1]heptane-2-carboxamide]"

# More lines, now with the values behind:
row,Compound,pEC50
1,"COc1ccc(/C=C/C(N)=O)cc1C(=O)N[C@@H]1C2CCC(/C2=C/C(F)(F)F)[C@@H]1C(=O)Nc1ccc(F)c(C(F)(F)F)c1 (stereo partly drawn) [Example 132, (2S,3R,7Z)-3-{5-[(1E)-2-carbamoyleth-1-en-1-yl]-2-methoxybenzamido}-N-[4-fluoro-3-(trifluoromethyl)phe-nyl]-7-(2,2,2-trifluoroethylidene)bi-cyclo[2.2.1]heptane-2-carboxamide]",6.42
2,"COc1ccc(/C=C/C(=O)NCCO)cc1C(=O)N[C@@H]1C2CCC(/C2=C/C(F)(F)F)[C@@H]1C(=O)Nc1ccc(F)c(C(F)(F)F)c1 (stereo partly drawn) [Example 133, (2S,3R,7Z)-N-[4-fluoro-3-(trifluoromethyl)phe-nyl]-3-{5-[(1E)-2-[(2-hydroxyethyl)carba-moyl]eth-1-en-1-yl]-2-methoxybenzamido}-7-(2,2,2-trifluoroethylidene)bi-cyclo[2.2.1]heptane-2-carboxamide]",6.42
3,"COc1ccc(/C=C/C(=O)NC2CCC2)cc1C(=O)NC1C2CCC(/C2=C/C(F)(F)F)[C@@H]1C(=O)Nc1ccc(F)c(C(F)(F)F)c1 (stereo partly drawn) [Example 135, (2S,3R,7Z)-3-{5-[(1E)-2-(cyclobutylcarbamoyl)eth-1-en-1-yl]-2-methoxybenzamido}-N-[4-fluoro-3-(trifluoromethyl)phe-nyl]-7-(2,2,2-trifluoroethylidene)bi-cyclo[2.2.1]heptane-2-carboxamide]",6.19
4,"COc1ccc(/C=C/C(=O)NCC(F)(F)F)cc1C(=O)NC1C2CCC(/C2=C/C(F)(F)F)[C@@H]1C(=O)Nc1ccc(F)c(C(F)(F)F)c1 (stereo partly drawn) [Example 136, (2S,3R,7Z)-N-[4-fluoro-3-(trifluoromethyl)phe-nyl]-3-{2-methoxy-5-[(1E)-2-[(2,2,2-trifluoroethyl)carba-moyl]eth-1-en-1-yl]benzamido}-7-(2,2,2-trifluoroethylidene)bi-cyclo[2.2.1]heptane-2-carboxamide]",6.11
5,"COc1ccc(CCC(=O)NCCO)cc1C(=O)N[C@@H]1C2CCC(/C2=C/C(F)(F)F)[C@@H]1C(=O)Nc1ccc(F)c(C(F)(F)F)c1 (stereo partly drawn) [Example 137, (2S,3R,7Z)-N-[4-fluoro-3-(trifluoromethyl)phe-nyl]-3-(5-{2-[(2-hydroxyethyl)carba-moyl]ethyl}-2-methoxybenzamido)-7-(2,2,2-trifluoroethylidene)bi-cyclo[2.2.1]heptane-2-carboxamide]",6.40
6,"COc1ccc(CCC(=O)N2CC[C@H](O)C2)cc1C(=O)N[C@@H]1C2CCC(/C2=C/C(F)(F)F)[C@@H]1C(=O)Nc1ccc(F)c(C(F)(F)F)c1 (stereo partly drawn) [Example 138, (2S,3R,7Z)-N-[4-fluoro-3-(trifluoromethyl)phe-nyl]-3-(5-{3-[(3S)-3-hydroxypyrrolidin-1-yl]-3-oxopropyl}-2-methoxybenzamido)-7-(2,2,2-trifluoroethylidene)bi-cyclo[2.2.1]heptane-2-carboxamide]",6.37
7,"COc1ccc(CCC(=O)NC2CCC2)cc1C(=O)NC1C2CCC(/C2=C/C(F)(F)F)[C@@H]1C(=O)Nc1ccc(F)c(C(F)(F)F)c1 (stereo partly drawn) [Example 139, (2S,3R,7Z)-3-{5-[2-(cyclobutylcarbamoyl)ethyl]-2-methoxybenzamido}-N-[4-fluoro-3-(trifluoromethyl)phe-nyl]-7-(2,2,2-trifluoroethylidene)bi-cyclo[2.2.1]heptane-2-carboxamide]",6.16
8,"COc1ccc(CCC(N)=O)cc1C(=O)NC1C2CCC(/C2=C/C(F)(F)F)[C@@H]1C(=O)Nc1ccc(F)c(C(F)(F)F)c1 (stereo partly drawn) [Example 140, (2S,3R,7Z)-3-[5-(2-carbamoylethyl)-2-methoxybenzamido]-N-[4-fluoro-3-(trifluoromethyl)phe-nyl]-7-(2,2,2-trifluoroethylidene)bi-cyclo[2.2.1]heptane-2-carboxamide]",6.13
9,"COc1ccc(CCC(=O)NCC(F)(F)F)cc1C(=O)NC1C2CCC(/C2=C/C(F)(F)F)[C@@H]1C(=O)Nc1ccc(F)c(C(F)(F)F)c1 (stereo partly drawn) [Example 141, (2S,3R,7Z)-N-[4-fluoro-3-(trifluoromethyl)phe-nyl]-3-(2-methoxy-5-{2-[(2,2,2-trifluoroethyl)carba-moyl]ethyl}benzami-do)-7-(2,2,2-trifluoroethylidene)bi-cyclo[2.2.1]heptane-2-carboxamide]",6.08
10,"CCOC(=O)C1CCC(c2ccc(OC)c(C(=O)NC3C4CCC(/C4=C/C(F)(F)F)[C@@H]3C(=O)Nc3ccc(F)c(C(F)(F)F)c3)c2)CC1 (stereo partly drawn) [Example 143, ethyl 4-(3-{[(2R,3S,7Z)-3-{[4-fluoro-3-(trifluoromethyl)phe-nyl]carbamoyl}-7-(2,2,2-trifluoroethylidene)bi-cyclo[2.2.1]heptan-2-yl]carbamoyl}-4-methoxyphenyl)cyclo-hexane-1-carboxylate]",6.69

# — US20250268903A1, “RXFP1 AGONISTS” (BRISTOL-MYERS SQUIBB COMPANY, priority 2021, published 2025)
